One molecule from the NIST ThermoML archive (doi:10.1021/acs.jced.8b00165) can be followed below.

For this data set the following is noted: Crystal; DTA.

Numbers after ± are expanded uncertainties.

Regarding `CNC(=O)c1cc(Oc2ccc(N)cc2)ccn1` [4-(4-aminophenoxy)-N-methylpyridine-2-carboxamide], the Normal melting temperature turned out to be 117.00 ± 1.1 °C.
